Tests used:
Format in all cases: functional
[1] = test system: SNB-75; experiment: Cytotoxicity against human SNB75 cells assessed as cell growth at 10^-5 M after 48 hrs by SRB assay; conditions: SNB-75, 48 h, read-out: Activity
[2] = test system: MDA-MB-468; experiment: Cytotoxicity against human MDA-MB-468 cells assessed as cell growth at 10^-5 M after 48 hrs by SRB assay; conditions: MDA-MB-468, 48 h, read-out: Activity
[3] = test system: BT-549; experiment: Cytotoxicity against human BT549 cells assessed as cell growth at 10^-5 M after 48 hrs by SRB assay; conditions: BT-549, 48 h, read-out: Activity
[4] = Cytotoxicity against human Hs578T cells assessed as cell growth at 10^-5 M after 48 hrs by SRB assay; conditions: Hs-578T, read-out: Activity
[5] = test system: MCF7; experiment: Cytotoxicity against human MCF7 cells assessed as cell growth at 10^-5 M after 48 hrs by SRB assay; conditions: MCF7, 48 h, read-out: Activity
[6] = test system: DU-145; experiment: Cytotoxicity against human DU145 cells assessed as cell growth at 10^-5 M after 48 hrs by SRB assay; conditions: DU-145, 48 h, read-out: Activity
[7] = Cytotoxicity against human UO31 cells assessed as cell growth at 10^-5 M after 48 hrs by SRB assay; conditions: UO-31, 48 h, read-out: Activity
[8] = test system: PC-3; experiment: Cytotoxicity against human PC3 cells assessed as cell growth at 10^-5 M after 48 hrs by SRB assay; conditions: PC-3, 48 h, read-out: Activity
[9] = test system: TK-10; experiment: Cytotoxicity against human TK10 cells assessed as cell growth at 10^-5 M after 48 hrs by SRB assay; conditions: TK-10, 48 h, read-out: Activity
[10] = test system: ACHN; experiment: Cytotoxicity against human ACHN cells assessed as cell growth at 10^-5 M after 48 hrs by SRB assay; conditions: read-out: Activity
[11] = test system: CAKI-1; experiment: Cytotoxicity against human Caki1 cells assessed as cell growth at 10^-5 M after 48 hrs by SRB assay; conditions: CAKI-1, 48 h, read-out: Activity
[12] = test system: A498; experiment: Cytotoxicity against human A498 cells assessed as cell growth at 10^-5 M after 48 hrs by SRB assay; conditions: A498, 48 h, read-out: Activity
[13] = test system: 786-0; experiment: Cytotoxicity against human 786-0 cells assessed as cell growth at 10^-5 M after 48 hrs by SRB assay; conditions: 786-0, 48 h, read-out: Activity
[14] = test system: OVCAR-8; experiment: Cytotoxicity against human OVCAR8 cells assessed as cell growth at 10^-5 M after 48 hrs by SRB assay; conditions: OVCAR-8, 48 h, read-out: Activity
[15] = Cytotoxicity against human NCI-ADR-RES cells assessed as cell growth at 10^-5 M after 48 hrs by SRB assay; conditions: read-out: Activity
[16] = test system: SK-MEL-5; experiment: Cytotoxicity against human SK-MEL-5 cells assessed as cell growth at 10^-5 M after 48 hrs by SRB assay; conditions: SK-MEL-5, 48 h, read-out: Activity
[17] = test system: SK-MEL-28; experiment: Cytotoxicity against human SK-MEL-28 cells assessed as cell growth at 10^-5 M after 48 hrs by SRB assay; conditions: SK-MEL-28, 48 h, read-out: Activity
[18] = test system: MDA-MB-435; experiment: Cytotoxicity against human MDA-MB-435 cells assessed as cell growth at 10^-5 M after 48 hrs by SRB assay; conditions: MDA-MB-435, 48 h, read-out: Activity
[19] = test system: Malme-3M; experiment: Cytotoxicity against human MALME-3M cells assessed as cell growth at 10^-5 M after 48 hrs by SRB assay; conditions: read-out: Activity
[20] = test system: SNB-19; experiment: Cytotoxicity against human SNB19 cells assessed as cell growth at 10^-5 M after 48 hrs by SRB assay; conditions: SNB-19, 48 h, read-out: Activity
[21] = test system: SF-539; experiment: Cytotoxicity against human SF539 cells assessed as cell growth at 10^-5 M after 48 hrs by SRB assay; conditions: SF-539, 48 h, read-out: Activity
[22] = test system: SF-268; experiment: Cytotoxicity against human SF268 cells assessed as cell growth at 10^-5 M after 48 hrs by SRB assay; conditions: SF-268, 48 h, read-out: Activity
[23] = test system: SW-620; experiment: Cytotoxicity against human SW620 cells assessed as cell growth at 10^-5 M after 48 hrs by SRB assay; conditions: SW-620, 48 h, read-out: Activity
[24] = test system: HCT-15; experiment: Cytotoxicity against human HCT15 cells assessed as cell growth at 10^-5 M after 48 hrs by SRB assay; conditions: HCT-15, 48 h, read-out: Activity
[25] = test system: HCC 2998; experiment: Cytotoxicity against human HCC2998 cells assessed as cell growth at 10^-5 M after 48 hrs by SRB assay; conditions: HCC 2998, 48 h, read-out: Activity
[26] = test system: HCT-116; experiment: Cytotoxicity against human HCT116 cells assessed as cell growth at 10^-5 M after 48 hrs by SRB assay; conditions: HCT-116, 48 h, read-out: Activity
[27] = test system: COLO 205; experiment: Cytotoxicity against human COLO205 cells assessed as cell growth at 10^-5 M after 48 hrs by SRB assay; conditions: COLO 205, 48 h, read-out: Activity
[28] = test system: NCI-H322M; experiment: Cytotoxicity against human NCI-H322M cells assessed as cell growth at 10^-5 M after 48 hrs by SRB assay; conditions: read-out: Activity
[29] = test system: NCI-H226; experiment: Cytotoxicity against human NCI-H226 cells assessed as cell growth at 10^-5 M after 48 hrs by SRB assay; conditions: NCI-H226, 48 h, read-out: Activity
[30] = test system: HOP-92; experiment: Cytotoxicity against human HOP92 cells assessed as cell growth at 10^-5 M after 48 hrs by SRB assay; conditions: HOP-92, 48 h, read-out: Activity
[31] = test system: A549; experiment: Cytotoxicity against human A549 cells assessed as cell growth at 10^-5 M after 48 hrs by SRB assay; conditions: A549, 48 h, read-out: Activity
[32] = test system: HOP-62; experiment: Cytotoxicity against human HOP62 cells assessed as cell growth at 10^-5 M after 48 hrs by SRB assay; conditions: HOP-62, 48 h, read-out: Activity
[33] = test system: SR; experiment: Cytotoxicity against human SR cells assessed as cell growth at 10^-5 M after 48 hrs by SRB assay; conditions: read-out: Activity
[34] = test system: RPMI-8226; experiment: Cytotoxicity against human RPMI8226 cells assessed as cell growth at 10^-5 M after 48 hrs by SRB assay; conditions: RPMI-8226, 48 h, read-out: Activity
[35] = test system: MOLT-4; experiment: Cytotoxicity against human MOLT4 cells assessed as cell growth at 10^-5 M after 48 hrs by SRB assay; conditions: MOLT-4, 48 h, read-out: Activity
[36] = test system: HL-60(TB); experiment: Cytotoxicity against human HL-60(TB) cells assessed as cell growth at 10^-5 M after 48 hrs by SRB assay; conditions: HL-60, 48 h, read-out: Activity
[37] = test system: CCRF-CEM; experiment: Cytotoxicity against human CCRF-CEM cells assessed as cell growth at 10^-5 M after 48 hrs by SRB assay; conditions: read-out: Activity

Row | Structure (SMILES) | growth at 10 µM [1] [%] | growth at 10 µM [2] [%] | growth at 10 µM [3] [%] | growth at 10 µM [4] [%] | growth at 10 µM [5] [%] | growth at 10 µM [6] [%] | growth at 10 µM [7] [%] | growth at 10 µM [8] [%] | growth at 10 µM [9] [%] | growth at 10 µM [10] [%] | growth at 10 µM [11] [%] | growth at 10 µM [12] [%] | growth at 10 µM [13] [%] | growth at 10 µM [14] [%] | growth at 10 µM [15] [%] | growth at 10 µM [16] [%] | growth at 10 µM [17] [%] | growth at 10 µM [18] [%] | growth at 10 µM [19] [%] | growth at 10 µM [20] [%] | further results
1 | C=CCn1c(C)nc2ccc(Nc3nc(NCCO)nc4ccccc34)cc21 | 92.5 | 119 | 96.5 | 91.5 | 93.7 | 107 | 92.6 | 93.8 | 124 | 104 | 99 | 78.3 | 95.7 | 99 | 106 | 96.5 | 99.3 | 102 | 111 | 93.9 | growth at 10 µM [21]: 104%; growth at 10 µM [22]: 92.5%; growth at 10 µM [23]: 97.7%; growth at 10 µM [24]: 113%; growth at 10 µM [25]: 110%; growth at 10 µM [26]: 94.7%; growth at 10 µM [27]: 106%; growth at 10 µM [28]: 100%; growth at 10 µM [29]: 107%; growth at 10 µM [30]: 73.9%; growth at 10 µM [31]: 99.9%; growth at 10 µM [32]: 97.6%; growth at 10 µM [33]: 104%; growth at 10 µM [34]: 95.7%; growth at 10 µM [35]: 96.7%; growth at 10 µM [36]: 114%; growth at 10 µM [37]: 88.5%
2 | C=CCn1c(C)nc2cc(Nc3nc(Nc4ccc5nc(C)n(CC=C)c5c4)nc4ccccc34)ccc21 | 90.8 | 118 | 106 | 100 | 92.4 | 115 | 89.3 | 95.8 | 130 | 104 | 101 | 125 | 113 | 98.9 | 101 | 99.7 | 106 | 108 | 94.5 | 100 | growth at 10 µM [21]: 98.6%; growth at 10 µM [22]: 113%; growth at 10 µM [23]: 106%; growth at 10 µM [24]: 107%; growth at 10 µM [25]: 104%; growth at 10 µM [26]: 98.9%; growth at 10 µM [27]: 108%; growth at 10 µM [28]: 109%; growth at 10 µM [29]: 99.8%; growth at 10 µM [30]: 79.8%; growth at 10 µM [31]: 96.3%; growth at 10 µM [32]: 101%; growth at 10 µM [33]: 106%; growth at 10 µM [34]: 98.8%; growth at 10 µM [35]: 101%; growth at 10 µM [36]: 84%; growth at 10 µM [37]: 94.8%

From ChEMBL document CHEMBL3112450, “Synthesis and in vitro antitumor evaluation of primary amine substituted quinazoline linked benzimidazole” (Bioorg Med Chem Lett, 2014)
